In US9815863B2, “Hydrogen bond forming fluoro ketolides for treating diseases” (priority 2010, dated 2017):

Key:
[1] = target: S. aureus 70S ribosomes; test: Saturation (direct) binding of radiolabeled drug to S. aureus wild-type ribosomes, spin-column
Procedure: Ribosomes were prepared from E. coli, strain MRE 600, S. aureus strain ATCC 29212, or S. aureus strain N315 by standard protocols (Spedding™, G. 1990. Isolation and analysis of ribosomes from prokaryotes, eukaryotes, and organelles, p. 1-29. In G. Spedding (ed.), Ribosomes and protein synthesis, a practical approach. Oxford University Press, Oxford, United Kingdom; Adams, P. D., P. V. Afonine, G. Bunkoczi, V. B. Chen, I. W. Davis, N. Echols, J. J. Headd, L. W. Hung, G. J. Kapral, R. W. Grosse-Kunstleve, A. J. McCoy, N. W. Moriarty, R. Oeffner, R. J. Read, D. C. Richardson, J. S. Richardson, T. C. Terwilliger, and P. H. Zwart. 2010. PHENIX: a comprehensive Python-based system for macromolecular structure solution. Acta Crystallogr. D. Biol. Crystallogr. 66:213-221).
Competition binding studies. […]
Direct antibiotic binding experiments were done by incubating ribosomes at a 100 nM concentration with varying concentrations of radiolabeled drug in a total volume of 160 μL in buffer A (20 mM Tris-HCl [pH 7.5], 10 mM MgCl2, 150 mM NH4Cl, 6 mM 2-mercaptoethanol) at 37° C. for 15 min, then at 20° C. for 10 min. […] Radioactivity was measured in a scintillation counter and used to calculate the amount of the radiolabeled drug bound to ribosomes.

[2] = tested on: 2058-dimethylated ribosomes isolated from the S. aureus N315 strain; test: RNA footprinting of A2058-dimethylated (Erm-modified) ribosomes from S. aureus N315; format: binding; conditions: S. aureus N315 ribosomes dimethylated at A2058, drugs at 100 μM
Procedure: (§1) Ribosome chemical probing. rRNA probing was done following standard protocols (Merryman, C., and H. F. Noller. 1998. Footprinting and modification-interference analysis of binding sites on RNA, p. 237-253. In C. W. J. Smith (ed.), RNA:Protein Interactions, A Practical Approach. Oxford University Press, Oxford), with minor modifications. Briefly, 200 nM ribosomes were incubated with 100 μM antibiotic in 50 μL of buffer B (80 mM HEPES-KOH [pH 7.8], 20 mM MgCl2, 100 mM NH4Cl, 1.5 mM dithiothreitol) for 10 min at 37° C., followed by 10 min at 20° C. Modifying reagents (dimethyl sulfate [DMS], kethoxal, or 1-cyclohexyl-3-(2-morpholinoethyl)carbodiimide metho p-toluene sulfonate [CMCT]) were added and the modification reaction was carried out for 10 min at 37° C. After quenching the reaction and ethanol precipitation, rRNA was extracted and the distribution of modified nucleotides was assessed by primer extension.
Interaction of CEM-101 with S. aureus ribosomes dimethylated at A2058 by Erm-methyltransferase. Erm-methyltransferase modifies A2058 in 23S rRNA by consecutively adding two methyl groups to the exocyclic amino group of the adenine base. Such modification completely blocks binding of erythromycin and similar macrolides, whereas its effect on binding of ketolides is less clear (Douthwaite, S., L. H. Hansen, and P. Mauvais. 2000. Macrolide-ketolide inhibition of MLS-resistant ribosomes is improved by alternative drug interaction with domain R of 23S rRNA. Mol. Microbiol. 36:183-193; Liu, M., and S. Douthwaite. 2002. Activity of the ketolide telithromycin is refractory to Erm monomethylation of bacterial rRNA. Antimicrob. Agents Chemother. 46:1629-1633). Therefore, interaction of CEM-101 with the ribosomes isolated from a clinical S. aureus strain N315, which carries five chromosomal copies of constitutively expressed ermA gene present in the Tn554 transposon (Kuroda, M., T. Ohta, I. Uchiyama, T. Baba, H. Yuzawa, I. Kobayashi, L. Cui, A. Oguchi, K. Aoki, Y. Nagai, J. Lian, T. Ito, M. Kanamori, H. Matsumaru, A. Maruyama, H. Murakami, A. Hosoyama, Y. Mizutani-Ui, N. K. Takahashi, T. Sawano, R. Inoue, C. Kaito, K. Sekimizu, H. Hirakawa, S. Kuhara, S. Goto, J. Yabuzaki, M. Kanehisa, A. Yamashita, K. Oshima, K. Furuya, C. Yoshino, T. Shiba, M. Hattori, N. Ogasawara, H. Hayashi, and K. Hiramatsu. 2001. Whole genome sequencing of meticillin-resistant Staphylococcus aureacs. Lancet 357:1225-1240) was investigated.
Footprinting analysis was used to test interactions of ketolides (CEM-101 and telithromycin) and cladinose-containing macrolides (CEM-103 and erythromycin) with the 2058-dimethylated ribosomes isolated from the S. aureus N315 strain. Ribosomes were incubated with the drugs (present at 100 μM concentration) and probed by DMS modification. Because dimethylated A2058 blocks progression of reverse transcriptase along the RNA template, a strong reverse transcriptase stop is observed at A2058 on the primer extension gel (Vester, B., and S. Douthwaite. 1994. Domain V of 23S rRNA contains all the structural elements necessary for recognition by the ErmE methyltransferase. J. Bacteriol. 176:6999-7004; Zhong, P., Z. Cao, R. Hammond, Y. Chen, J. Beyer, V. D. Shortridge, L. Y. Phan, S. Pratt, J. Capobianco, K. A. Reich, R. K. Flamm, Y. S. Or, and L. Katz. 1999. Induction of ribosome methylation in MLS-resistant Streptococcus pneumoniae by macrolides and ketolides. Microb. Drug Resist. 5:183-188). Therefore, it is impossible to use footprinting to evaluate interactions of macrolides with this position in the S. aureus N315 ribosomes. […]

[3] = tested on: S. aureus ribosomes (23S rRNA); test: RNA footprinting (ribosome chemical probing), wild-type S. aureus ribosomes; format: binding; conditions: 100 μM antibiotic
Procedure: as §1
Interactions of CEM-101 with wild-type E. coli and S. aureus ribosomes in solution. […] 1987. Chloramphenicol, erythromycin, carbomycin and vernamycin B protect overlapping sites in the peptidyl transferase region of 23S ribosomal RNA. Biochimie 69:879-884). Also included in this study was a C3-cladinose cousin of CEM-101, CEM-103, which lacks the C2-linked fluorine atom.

CC[C@H]1OC(=O)[C@@](C)(F)C(=O)[C@H](C)[C@@H](O[C@@H]2O[C@H](C)C[C@H](N(C)C)[C@H]2O)[C@](C)(OC)C[C@@H](C)C(=O)[C@H](C)[C@H]2N(CCCCn3cc(-c4cccc(N)c4)nn3)C(=O)O[C@]12C [CEM-101]
Kd [1]: 50 ± 13 nM | Protection of A2059 from DMS modification (binding to Erm-modified ribosome) [2]: protection of A2059 from DMS modification | Protection of G2505 from kethoxal modification [2]: partially protected | Protection of U2609 from modification with CMCT [2]: fully protected | Protection of A752 from DMS modification ([3]; S. aureus ribosomes): strongly protects | Protection of A2058 and A2059 in domain V of 23S rRNA from modification with DMS ([3]; S. aureus wild-type ribosomes): protect
